# Reference: patent US10377773B2, “Isothiazolopyrimidinones, pyrazolopyrimidinones, and pyrrolopyrimidinones as ubiquitin-specific protease 7 inhibitors” (FORMA Therapeutics, Inc., priority 2015, dated 2019)
# Biological target: T1, USP7 (Homo sapiens, UniProt Q93009)
# T1 construct: USP7, construct USP7 (208-1102) 6*His, Viva Biotech; initiator Met (N); TEV site (C); 6*His (C); purchased Viva Biotech
# Test: USP7 Assay A and B (Ubiquitin-Rhodamine 110 assay)
# Type: biochemical
# Settings: Ub-Rh110 substrate 25 nM, read-out: USP7_IC50
# Method: Each assay was performed in a final volume of 15 μL in assay buffer containing 20 mM Tris-HCl (pH 8.0, (1M Tris-HCl, pH 8.0 solution; Corning 46-031-CM)), 1 mM GSH (L-Glutathione reduced; Sigma #G4251), 0.03% BGG (0.22 μM filtered, Sigma, #G7516-25G), and 0.01% Triton X-100 (Sigma, #T9284-10L). Nanoliter quantities of either an 8-point or 10-point, 3-fold serial dilution in DMSO was pre-dispensed into assay plates (Perkin Elmer, ProxiPlate-384 F Plus, #6008269) for a final test concentration range of either 25 μM to 11 nM or 25 μM to 1.3 nM, respectively. The final concentration of the enzyme (USP7, construct USP7 (208-1102) 6*His, Viva Biotech) in the assay was 62.5 pM. Final substrate (Ub-Rh110; Ubiquitin-Rhodamine 110, R&D Systems #U-555) concentration was 25 nM with [Ub-Rh110]<<Km. 5 μL of 2× enzyme was added to the assay plates (pre-stamped with compound) and preincubated with USP7 for 30 min. 5 μL of 2×Ub-Rh110 was then added to assay plates. Plates were incubated stacked for 20 min at room temperature before 5 μL of stop solution (final concentration of 10 mM citric acid in assay buffer (Sigma, #251275-500G)). Fluorescence was read on the Envision (Excitation at 485 nm and Emission at 535 nm; Perkin Elmer) or on the PheraSTAR (Excitation at 485 nm and Emission at 535 nm; BMG Labtech).
# Each assay was performed in a final volume of 20 μL in assay buffer containing 20 mM Tris-HCl (pH 8.0, (1M Tris-HCl, pH 8.0 solution; Corning 46-031-CM)), 2 mM CaCl2 (1M calcium chloride solution; Sigma #21114), 1 mM GSH (L-Glutathione reduced; Sigma #G4251), 0.01% Prionex (0.22 μM filtered, Sigma #G-0411), and 0.01% Triton X-100. Stock compound solutions were stored at −20° C. as 10 mM in DMSO. Up to 1 month prior to the assay, 2 mM test compounds were pre-dispensed into assay plates (Black, low volume; Corning #3820) and frozen at −20° C. Prestamped assay plates were allowed to warm to room temperature on the day of the assay. For the screen, 100 nL of 2 mM was pre-dispensed for a final screening concentration of 10 μM (DMSO(fc)=0.5%). For follow-up studies, 250 nL of an 8-point, 3-fold serial dilution in DMSO was pre-dispensed into assay plates for a final test concentration of 25 μM-11 nM (1.25c % DMSO final concentration). Unless otherwise indicated, all follow-up assays were run on triplecate plates. Enzyme (USP7, construct Met (208-1102)-TEV-6*His; Viva Q93009-1) concentration and incubation times were optimized for the maximal signal-to-background while maintaining initial velocity conditions at a fixed substrate concentration. The final concentration of the enzyme in the assay was either 75 pM or 250 pM. Final substrate (Ub-Rh110; Ubiquitin-Rhodamine 110, R&D Systems (biotechne)#U-555) concentration was 25 nM with [Ub-Rh110]<<Km. Compounds were either not preincubated or preincubated with USP7 between 30 to 120 min prior to the addition of 10 μL of 2×Ub-Rh110 to compound plates. Plates were incubated stacked for either 23 or 45 min at room temperature before fluorescence was read on the Envision (Excitation at 485 nm and Emission at 535 nm; Perkin Elmer) or on the PheraSTAR (Excitation at 485 nm and Emission at 535 nm; BMG Labtech).
# Data from USP7 Assays A and B were reported as percent inhibition (inh) compared with control wells based on the following equation: % inh=1−((FLU−AveLow)/(AveHigh−AveLow)) where FLU=measured Fluorescence, AveLow=average Fluorescence of no enzyme control (n=16), and AveHigh=average Fluorescence of DMSO control (n=16). IC50 values were determined by curve fitting of the standard 4 parameter logistic fitting algorithm included in the Activity Base software package: IDBS XE Designer Model205. Data was fitted using the Levenburg Marquardt algorithm.
# T1 sequence (Q93009 208-1102): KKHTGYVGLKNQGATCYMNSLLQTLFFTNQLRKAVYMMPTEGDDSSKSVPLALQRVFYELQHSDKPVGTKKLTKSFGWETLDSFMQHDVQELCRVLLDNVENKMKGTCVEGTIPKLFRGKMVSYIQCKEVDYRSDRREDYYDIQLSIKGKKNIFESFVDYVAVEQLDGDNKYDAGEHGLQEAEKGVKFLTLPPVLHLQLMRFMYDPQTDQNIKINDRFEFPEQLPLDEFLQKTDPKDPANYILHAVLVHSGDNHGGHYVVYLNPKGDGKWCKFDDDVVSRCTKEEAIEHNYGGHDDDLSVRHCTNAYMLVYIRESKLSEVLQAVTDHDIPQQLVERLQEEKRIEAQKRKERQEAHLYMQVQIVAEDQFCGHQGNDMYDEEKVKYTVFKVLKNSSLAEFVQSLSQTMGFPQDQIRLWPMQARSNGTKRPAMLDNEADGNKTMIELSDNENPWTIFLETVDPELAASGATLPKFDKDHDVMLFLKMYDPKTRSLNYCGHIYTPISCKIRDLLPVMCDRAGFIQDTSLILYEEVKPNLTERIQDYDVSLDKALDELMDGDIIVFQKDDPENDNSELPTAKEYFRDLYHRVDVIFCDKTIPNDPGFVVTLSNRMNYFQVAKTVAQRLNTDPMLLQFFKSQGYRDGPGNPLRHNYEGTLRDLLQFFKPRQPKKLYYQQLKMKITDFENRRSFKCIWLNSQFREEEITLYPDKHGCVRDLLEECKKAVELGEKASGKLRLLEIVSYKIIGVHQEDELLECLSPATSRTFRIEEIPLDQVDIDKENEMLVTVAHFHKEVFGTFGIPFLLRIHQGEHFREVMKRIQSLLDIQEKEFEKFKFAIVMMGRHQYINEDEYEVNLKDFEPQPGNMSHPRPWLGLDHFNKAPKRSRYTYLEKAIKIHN
row,Structure (SMILES),IC50
1,"O=C(c1ccc(F)cc1)N1CCC(O)(Cn2cnc3c(-c4ccc(CO)cc4)nsc3c2=O)CC1 [Compound I-23, 6-{[1-(4-fluorobenzoyl)-4-hydroxypiperidin-4-yl]methyl}-3-[4-(hydroxymethyl)phenyl]-6H,7H-[1,2]thiazolo[4,5-d]pyrimidin-7-one]",1000 to 10000 nM
2,"COc1ccc(C(=O)N2CCC(O)(Cn3cnc4c(-c5ccc(CO)cc5)nsc4c3=O)CC2)cc1 [Compound I-24, 6-{[4-hydroxy-1-(4-methoxybenzoyl)piperidin-4-yl]methyl}-3-[4-(hydroxymethyl)phenyl]-6H,7H-[1,2]thiazolo[4,5-d]pyrimidin-7-one]",1000 to 10000 nM
3,"O=C(CCC(F)(F)F)N1CCC(O)(Cn2cnc3c(-c4ccc(F)cc4)nsc3c2=O)CC1 [Compound I-25, 3-(4-fluorophenyl)-6-{[4-hydroxy-1-(4,4,4-trifluorobutanoyl)piperidin-4-yl]methyl}-6H,7H-[1,2]thiazolo[4,5-d]pyrimidin-7-one]",> 10000 nM
4,"CN(C)C(=O)N1CCC(O)(Cn2cnc3c(-c4ccc(NCCN5CCCCC5)cc4)nsc3c2=O)CC1 [Compound I-26, 4-hydroxy-N,N-dimethyl-4-{[7-oxo-3-(4-{[2-(piperidin-1-yl)ethyl]amino}phenyl)-6H,7H-[1,2]thiazolo[4,5-d]pyrimidin-6-yl]methyl}piperidine-1-carboxamide]",1000 to 10000 nM
5,"O=C1NCCN1CCOc1cccc(-c2nsc3c(=O)n(CC4(O)CCN(C(=O)C5CC5)CC4)cnc23)c1 [Compound I-27, 1-[2-(3-{6-[(1-cyclopropanecarbonyl-4-hydroxypiperidin-4-yl)methyl]-7-oxo-6H,7H-[1,2]thiazolo[4,5-d]pyrimidin-3-yl}phenoxy)ethyl]imidazolidin-2-one]",1000 to 10000 nM
6,"C[C@H](CC(=O)N1CCC(O)(Cn2cnc3cc[nH]c3c2=O)CC1)c1ccccc1 [Compound I-28, 3-({4-hydroxy-1-[(3R)-3-phenylbutanoyl]piperidin-4-yl}methyl)-3H,4H,5H-pyrrolo[3,2-d]pyrimidin-4-one]",< 500 nM
7,"O=C(c1ccccc1)N1CCC(O)(Cn2cnc3c(-c4ccccc4)n[nH]c3c2=O)CC1 [Compound I-29, 6-[(1-benzoyl-4-hydroxypiperidin-4-yl)methyl]-3-phenyl-1H,6H,7H-pyrazolo[4,3-d]pyrimidin-7-one]",500 to 1000 nM
8,"O=C(c1ccc(F)cc1)N1CCC(O)(Cn2cnc3c(-c4ccc(F)cc4)nsc3c2=O)CC1 [Compound I-30, 6-{[1-(4-fluorobenzoyl)-4-hydroxypiperidin-4-yl]methyl}-3-(4-fluorophenyl)-6H,7H-[1,2]thiazolo[4,5-d]pyrimidin-7-one]",> 10000 nM
9,"COc1ccc(C(=O)N2CCC(O)(Cn3cnc4c(-c5ccc(OC)cc5)nsc4c3=O)CC2)cc1 [Compound I-31, 6-{[4-hydroxy-1-(4-methoxybenzoyl)piperidin-4-yl]methyl}-3-(4-methoxyphenyl)-6H,7H-[1,2]thiazolo[4,5-d]pyrimidin-7-one]",1000 to 10000 nM
